Measurements: patent US20170258781A1, “ATRIAL SPECIFIC ANTIARRHYTHMICS FOR USE IN TREATING OR PREVENTING ATRIAL FIBRILLATION” (Tufts Medical Center, Inc., priority 2014, published 2017)

Legend:
[1] = molecular target: IKr (hERG protein channel) (Homo sapiens, UniProt Q12809); conditions: 5 min
Protocol: FIG. 2: IKr current was measured in Chinese hamster ovary cells (CHO) expressing the current.
The arrow denotes the tail current. Tail current is elicited by 3 second step voltage drop from +20 mV to −40 mV. The gray trace is the remaining current after total current block with E4031.
We used the conventional patch clamp method and human embryonic kidney cells transfected with Kir3.1 and Kir3.4 protein channels responsible for IKACh, or Chinese hamster ovary cells transfected with the hERG protein channel responsible for IKr. […] In order to elicit IKACh, the cells were subjected to a voltage protocol consisting of a 2 second ramp from −130 mV to 50 mV, from a holding potential of −40 mV. IKr tail current was elicited by a 3 second voltage drop step from 20 mV to −40 mV. The drugs were superfused over a 5 minute period into the chambers that hold the cells.

[2] = molecular target: T1, IKACh (Kir3.1 and Kir3.4 protein channels) (Homo sapiens, UniProt P48544+P48549); test: Patch clamp block of IKACh current in transfected HEK 293 cells; format: cell-based; conditions: for percentage block of IKACh current (FIG. 5, Compound A experiments): same manner and cell lines, concentration not given; for percentage block of IKACh current (outward component): 1 μM drug, HEK 293 cells transfected with Kir3.1/Kir3.4, barium sensitive current, 5 minute superfusion
T1 construct: expressed in transfected cells; host or cells: HEK 293 (human embryonic kidney cells)
T1 sequence (P48549 1-501): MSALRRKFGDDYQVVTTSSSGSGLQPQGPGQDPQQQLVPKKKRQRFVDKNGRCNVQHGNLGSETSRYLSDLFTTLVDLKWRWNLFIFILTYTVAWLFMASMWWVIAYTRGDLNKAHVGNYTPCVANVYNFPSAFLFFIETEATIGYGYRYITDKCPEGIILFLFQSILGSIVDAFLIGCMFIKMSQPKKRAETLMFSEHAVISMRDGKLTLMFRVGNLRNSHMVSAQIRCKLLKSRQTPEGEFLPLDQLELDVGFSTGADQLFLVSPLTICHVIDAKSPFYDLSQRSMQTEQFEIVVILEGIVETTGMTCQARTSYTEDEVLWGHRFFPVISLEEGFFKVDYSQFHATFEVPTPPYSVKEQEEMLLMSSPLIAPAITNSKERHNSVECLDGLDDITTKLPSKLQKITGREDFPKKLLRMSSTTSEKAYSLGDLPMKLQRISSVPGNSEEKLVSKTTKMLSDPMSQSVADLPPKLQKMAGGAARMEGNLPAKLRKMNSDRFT
T1 sequence (P48544 1-419): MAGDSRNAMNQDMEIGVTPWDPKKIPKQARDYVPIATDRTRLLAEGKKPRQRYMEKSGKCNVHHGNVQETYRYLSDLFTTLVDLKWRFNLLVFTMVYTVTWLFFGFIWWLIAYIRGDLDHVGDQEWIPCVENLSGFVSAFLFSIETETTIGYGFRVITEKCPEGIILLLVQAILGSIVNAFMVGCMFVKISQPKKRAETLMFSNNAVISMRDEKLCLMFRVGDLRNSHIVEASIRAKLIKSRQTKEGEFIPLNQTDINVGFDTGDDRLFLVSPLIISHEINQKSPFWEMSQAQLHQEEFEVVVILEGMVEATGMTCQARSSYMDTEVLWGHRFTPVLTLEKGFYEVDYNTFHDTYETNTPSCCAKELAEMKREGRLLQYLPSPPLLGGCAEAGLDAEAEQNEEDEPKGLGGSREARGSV
Protocol: FIG. 1: In patch clamp experiments, IKACh was measured in human embryonic kidney cells (HEK 293) transfected with IKACh.
The boxed area is the physiologically important outward component of the IKACh current. A magnification is shown. […] The traces are the barium sensitive currents.

[3] = Compound A vs racemic chloroquine

Sequence of IKr (hERG protein channel) (Q12809 whole entry): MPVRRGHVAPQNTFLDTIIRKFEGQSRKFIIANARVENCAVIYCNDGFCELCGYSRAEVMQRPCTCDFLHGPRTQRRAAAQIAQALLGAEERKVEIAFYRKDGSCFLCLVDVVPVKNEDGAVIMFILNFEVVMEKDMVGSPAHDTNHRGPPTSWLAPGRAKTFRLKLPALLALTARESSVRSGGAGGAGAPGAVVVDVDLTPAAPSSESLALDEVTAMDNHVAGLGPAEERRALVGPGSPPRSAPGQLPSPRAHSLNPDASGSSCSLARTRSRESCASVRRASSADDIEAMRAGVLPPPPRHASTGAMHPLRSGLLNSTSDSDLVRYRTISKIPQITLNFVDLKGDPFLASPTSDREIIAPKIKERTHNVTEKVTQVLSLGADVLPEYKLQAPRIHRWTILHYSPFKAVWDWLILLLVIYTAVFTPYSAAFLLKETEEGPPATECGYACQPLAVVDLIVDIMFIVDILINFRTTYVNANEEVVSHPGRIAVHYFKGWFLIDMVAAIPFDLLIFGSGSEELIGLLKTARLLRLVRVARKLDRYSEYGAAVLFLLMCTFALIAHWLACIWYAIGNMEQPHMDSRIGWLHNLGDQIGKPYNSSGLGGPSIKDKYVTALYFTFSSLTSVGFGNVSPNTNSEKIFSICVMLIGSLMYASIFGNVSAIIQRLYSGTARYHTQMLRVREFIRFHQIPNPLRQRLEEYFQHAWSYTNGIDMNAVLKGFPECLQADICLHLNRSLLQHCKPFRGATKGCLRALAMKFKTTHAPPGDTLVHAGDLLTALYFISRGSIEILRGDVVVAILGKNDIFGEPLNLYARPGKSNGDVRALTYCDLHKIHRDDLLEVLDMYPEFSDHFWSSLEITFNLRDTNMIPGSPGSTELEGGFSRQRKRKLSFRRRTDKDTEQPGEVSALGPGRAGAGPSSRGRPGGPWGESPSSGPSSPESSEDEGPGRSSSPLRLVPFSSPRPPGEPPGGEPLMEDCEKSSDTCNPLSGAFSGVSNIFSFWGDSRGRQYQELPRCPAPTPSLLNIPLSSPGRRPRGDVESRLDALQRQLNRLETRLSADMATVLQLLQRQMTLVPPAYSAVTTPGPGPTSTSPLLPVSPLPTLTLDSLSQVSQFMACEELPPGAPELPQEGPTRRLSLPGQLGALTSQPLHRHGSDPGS

Row | Molecule | percentage block of IKACh current (FIG. 5, Compound A experiments) [2, 3] | percentage block of IKACh current (outward component) [2] | further results
1 | CCN(CC)CCC[C@H](Cc1ccccc1)Nc1ccnc2cc(Cl)ccc12 [Compound A] | 110%±2.5 |  | percentage block of IKr current (FIG. 5, Compound A experiments) [1]: 75%±5.7; IKACh block relative to chloroquine, in words [2, 3]: significantly better blocker of IKACh
2 | CCN(CC)CCC[C@@H](C)Nc1ccnc2cc(Cl)ccc12 [(R)-chloroquine, reference compound] |  | less than 13% | percentage block of IKACh current (outward component) ([2]; listed as distomer (R)): 14%±9
3 | CCN(CC)CCC[C@H](C)Nc1ccnc2cc(Cl)ccc12 [(S)-chloroquine] |  | more than 83% | percentage block of IKACh current (outward component) ([2]; listed as eutomer (S)): 83%±2
4 | chloroquine [racemic chloroquine, reference compound] | 52%±11 |  | 
